For one assay, the species on record is Homo sapiens. Put plainly: In vitro inhibition of Thromboxane A2 synthesis in human platelet. Type of assay: functional.
The target in a further assay is Phosphodiesterase 3 (Homo sapiens, UniProt Q14432+Q13370). The assay is described as follows: Inhibition of human platelet Phosphodiesterase 3.
Another assay concerns the target Phosphodiesterase 4 (Rattus norvegicus, UniProt P14270+P14646+P14644+P54748). Put plainly: Inhibition of rat kidney Phosphodiesterase 4. It counts as protein assay.
The target of assay [1] is cGMP-specific 3',5'-cyclic phosphodiesterase (Homo sapiens, UniProt O76074). The assay is described as follows: Inhibitory activity against phosphodiesterase 5 from human platelets.
For assay [2], the species on record is Rattus norvegicus. The assay is described as follows: In vitro inhibition of Thromboxane B2 production in A-23,187-Induced Rat Whole Blood. It counts as functional.
The target of another assay is Phosphodiesterase 1 (Bos taurus, UniProt Q01061+P14100). Put plainly: Inhibition of bovine aorta Phosphodiesterase 1. Type of assay: protein assay.
The species entered for assay [3] is Rattus norvegicus. Put plainly: Ex vivo inhibition of Thromboxane B2 production in A-23,187-Induced Rat Whole Blood. It counts as functional.
Assay [4] has as its target T1, cGMP-dependent 3',5'-cyclic phosphodiesterase (Rattus norvegicus, UniProt Q01062).
T1 sequence (Q01062 whole entry): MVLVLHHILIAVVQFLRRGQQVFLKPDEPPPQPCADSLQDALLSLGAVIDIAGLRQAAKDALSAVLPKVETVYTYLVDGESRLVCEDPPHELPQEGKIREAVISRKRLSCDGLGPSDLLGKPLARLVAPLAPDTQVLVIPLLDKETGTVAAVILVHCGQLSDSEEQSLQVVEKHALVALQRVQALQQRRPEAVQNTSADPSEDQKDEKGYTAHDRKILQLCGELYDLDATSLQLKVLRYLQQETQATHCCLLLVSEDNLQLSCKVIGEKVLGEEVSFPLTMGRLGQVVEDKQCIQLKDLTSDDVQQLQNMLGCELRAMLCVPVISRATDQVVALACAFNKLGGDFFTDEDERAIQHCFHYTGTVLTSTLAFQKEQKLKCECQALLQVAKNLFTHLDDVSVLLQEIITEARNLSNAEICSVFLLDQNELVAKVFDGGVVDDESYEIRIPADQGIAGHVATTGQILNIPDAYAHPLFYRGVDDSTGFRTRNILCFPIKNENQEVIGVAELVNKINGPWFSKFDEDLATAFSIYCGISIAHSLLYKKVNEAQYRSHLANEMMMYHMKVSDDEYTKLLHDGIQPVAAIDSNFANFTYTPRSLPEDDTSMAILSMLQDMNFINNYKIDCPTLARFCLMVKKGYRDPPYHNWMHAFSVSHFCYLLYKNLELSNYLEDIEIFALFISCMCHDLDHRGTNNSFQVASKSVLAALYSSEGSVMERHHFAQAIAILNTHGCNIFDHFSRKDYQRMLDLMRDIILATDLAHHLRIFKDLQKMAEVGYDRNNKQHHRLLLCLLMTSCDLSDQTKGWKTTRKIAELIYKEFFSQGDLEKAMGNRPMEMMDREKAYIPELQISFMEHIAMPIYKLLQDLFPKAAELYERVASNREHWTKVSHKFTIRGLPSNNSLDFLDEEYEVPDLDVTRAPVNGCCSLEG
Put plainly: Inhibition of rat brain Phosphodiesterase 2.

Another assay addresses Cyclooxygenase (Homo sapiens, UniProt P35354+P23219). The assay is described as follows: Inhibitory activity against Prostaglandin G/H synthase. Type of assay: protein assay.
The target of a further assay is T2, Thromboxane-A synthase (Homo sapiens, UniProt P24557).
T2 sequence (P24557 whole entry): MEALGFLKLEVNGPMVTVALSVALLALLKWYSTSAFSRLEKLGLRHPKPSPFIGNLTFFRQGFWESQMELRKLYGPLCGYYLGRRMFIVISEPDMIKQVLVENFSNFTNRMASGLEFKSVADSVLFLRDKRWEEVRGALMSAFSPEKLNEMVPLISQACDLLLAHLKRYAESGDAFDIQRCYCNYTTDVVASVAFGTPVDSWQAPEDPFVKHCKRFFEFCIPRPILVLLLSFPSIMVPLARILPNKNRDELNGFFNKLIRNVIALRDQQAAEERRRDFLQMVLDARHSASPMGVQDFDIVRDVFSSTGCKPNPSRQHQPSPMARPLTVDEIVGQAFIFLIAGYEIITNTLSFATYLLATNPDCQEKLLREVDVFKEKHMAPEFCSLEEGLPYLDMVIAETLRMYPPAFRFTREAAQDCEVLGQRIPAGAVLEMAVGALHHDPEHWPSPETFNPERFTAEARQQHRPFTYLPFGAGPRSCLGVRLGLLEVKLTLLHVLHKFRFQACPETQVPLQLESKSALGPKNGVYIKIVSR
Put plainly: In vitro inhibition of Thromboxane A2 synthase in human platelet.

pIC50: −log10 of the molar value.

In general, pIC50 refers to the negative decadic logarithm of the IC50, by convention in mol/L. Low readings indicate a high IC50, high ones a low IC50. One may read the IC50 as the concentration needed to halve the response being measured. Read a high IC50 as lower potency. In general, ED50 refers to the dose at which the effect has come halfway, by size or by number of responders. Read a low ED50 as greater potency.

In the assay listed under Homo sapiens, `O=C(O)/C=C/c1ccc(Cn2ccnc2)cc1` [OZAGREL] showed a pIC50 of 5.48.

As to `c1ccc(CNc2nc(-c3ccncc3)nc3ccccc23)cc1`, the IC50 at Phosphodiesterase 3 was > 100 µM; on Phosphodiesterase 4, 7.5 µM; on Phosphodiesterase 1, 7 µM; against Cyclooxygenase, 14 µM. Besides, the pIC50 in assay [1] was 6.51; in the assay filed under Rattus norvegicus [2], 5.74; in assay [4], 4.77; on Thromboxane-A synthase, 6.08. The compound further had an ED50 in the assay filed under Rattus norvegicus [3] of 11 mg/kg.

The record behind these values is ChEMBL document CHEMBL1128541 (J Med Chem, 1995).
